From ChEMBL document CHEMBL1201862, “PubChem BioAssay data set” (2004)
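96-well plates; 48 h exposure; 5 concentrations. Endpoints by linear interpolation between flanking doses. Not reached: highest tested concentration assigned. Here, GI50 denotes the concentration required for 50% inhibition of growth.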 Active and inactive are the calls of the source. No stated cut-off is given here; in the data, active = GI50 up to about 1.1 µM and inactive = higher.

Columns and labels:
Assay in all cases: NCI tumour cell line growth inhibition, 48 h
SK-MEL-5 = tested on: SK-MEL-5
SF-539 = tested on: SF-539
OVCAR-8 = tested on: OVCAR-8
HOP-92 = tested on: HOP-92
HCC 2998 = tested on: HCC 2998
OVCAR-4 = tested on: OVCAR-4
IGROV-1 = tested on: IGROV-1
A549 = tested on: A549
NCI-H522 = tested on: NCI-H522
UACC-62 = tested on: UACC-62
CCRF-CEM = tested on: CCRF-CEM
M19-MEL = tested on: M19-MEL
EKVX = tested on: EKVX
OVCAR-5 = tested on: OVCAR-5
A498 = tested on: A498
Hs-578T = tested on: Hs-578T
MDA-N = tested on: MDA-N
NCI/ADR-RES = tested on: NCI/ADR-RES
PC-3 = tested on: PC-3
T47D = tested on: T47D

Measured: GI50

C=C1C(=O)O[C@H]2[C@H]1[C@H](OC(=O)/C(C)=C\C)CC(=C)[C@@H]1[C@H](O)[C@H]3O[C@@]3(C)[C@@]12O [EUPATUNDIN]
inactive: SK-MEL-5 > 100 µM | SF-539 > 100 µM | OVCAR-8 > 100 µM | HOP-92 > 100 µM | HCC 2998 > 100 µM | OVCAR-4 > 100 µM | IGROV-1 > 100 µM | A549 > 100 µM | NCI-H522 > 100 µM | UACC-62 > 100 µM | CCRF-CEM > 100 µM | M19-MEL > 100 µM | EKVX > 100 µM

C=C(C)CC(C(=O)O)c1ccc(C)cc1 (stereo not given)
inactive: SK-MEL-5 > 100 µM | SF-539 > 100 µM | OVCAR-5 > 100 µM | OVCAR-8 > 100 µM | HOP-92 > 100 µM | OVCAR-4 > 100 µM | IGROV-1 > 100 µM | A549 > 100 µM | UACC-62 > 100 µM | A498 > 100 µM | M19-MEL > 100 µM | EKVX > 100 µM

COc1ccc(C2Oc3cc(OC)c(O)c(C)c3[C@H]2C)cc1 (stereo not given in full)
inactive: SK-MEL-5 62.7 µM | SF-539 > 100 µM | OVCAR-5 > 100 µM | OVCAR-8 70 µM | HOP-92 > 100 µM | HCC 2998 > 100 µM | OVCAR-4 80.4 µM | IGROV-1 > 100 µM | A549 > 100 µM | NCI-H522 35.2 µM | UACC-62 > 100 µM | A498 79.4 µM | CCRF-CEM 36.2 µM | M19-MEL > 100 µM | EKVX 26.6 µM

O=C(c1ccccc1)c1nnc(C(=O)c2ccccc2)nn1
inactive: SK-MEL-5 > 344 µM | SF-539 > 344 µM | OVCAR-5 > 344 µM | OVCAR-8 > 344 µM | HOP-92 166 µM | HCC 2998 36.3 µM | OVCAR-4 > 344 µM | IGROV-1 > 344 µM | A549 > 344 µM | NCI-H522 134 µM | UACC-62 > 344 µM | CCRF-CEM 265 µM | M19-MEL > 344 µM | EKVX > 344 µM

CN(C)CCC(CCN(C)C)=NO
inactive: SK-MEL-5 > 100 µM | SF-539 > 100 µM | OVCAR-8 > 100 µM | HCC 2998 > 100 µM | OVCAR-4 > 100 µM | IGROV-1 > 100 µM | A549 > 100 µM | NCI-H522 > 100 µM | UACC-62 > 100 µM | A498 > 100 µM | CCRF-CEM > 100 µM | M19-MEL > 100 µM | EKVX > 100 µM

NC(=O)/N=C1\NC(Cc2ccccc2)C(=O)N1Cc1ccccc1 (stereo not given)
inactive: SK-MEL-5 > 100 µM | SF-539 > 100 µM | OVCAR-5 > 100 µM | OVCAR-8 > 100 µM | HCC 2998 > 100 µM | OVCAR-4 > 100 µM | IGROV-1 > 100 µM | A549 > 100 µM | UACC-62 > 100 µM | CCRF-CEM > 100 µM | M19-MEL > 100 µM | EKVX > 100 µM

COc1ccc(/C(=C/n2ccnc2)C(O)c2ccc(OC)c(OC)c2)cc1OC (stereo not given)
inactive: SF-539 78 µM | OVCAR-5 > 100 µM | OVCAR-8 > 100 µM | HOP-92 30.6 µM | OVCAR-4 > 100 µM | IGROV-1 > 100 µM | A498 68.9 µM | CCRF-CEM 26.7 µM | M19-MEL > 100 µM

OCCCCCNc1ccnc2cc(Cl)ccc12
inactive: SK-MEL-5 53.5 µM | SF-539 > 100 µM | OVCAR-5 83.2 µM | OVCAR-8 64.1 µM | HOP-92 > 100 µM | HCC 2998 > 100 µM | OVCAR-4 > 100 µM | IGROV-1 > 100 µM | A549 > 100 µM | NCI-H522 87.5 µM | UACC-62 > 100 µM | A498 > 100 µM | CCRF-CEM > 100 µM | M19-MEL > 100 µM | EKVX 86.3 µM

CCCCCCCCC(=O)CCCCCCCCC(=O)O
inactive: SK-MEL-5 15.5 µM | SF-539 19.7 µM | OVCAR-5 24.8 µM | OVCAR-8 17.3 µM | HOP-92 18.9 µM | OVCAR-4 50.2 µM | IGROV-1 18.7 µM | A549 19.7 µM | NCI-H522 25.5 µM | UACC-62 20.1 µM | A498 23.9 µM | CCRF-CEM 28.6 µM | M19-MEL 47.5 µM | EKVX 28.4 µM

O=C(O)C(CS)Nc1c2ccccc2[n+]([O-])c2ccccc12 (stereo not given)
inactive: SK-MEL-5 76 µM | OVCAR-5 > 100 µM | OVCAR-8 > 100 µM | HCC 2998 > 100 µM | OVCAR-4 > 100 µM | IGROV-1 > 100 µM | A549 > 100 µM | NCI-H522 56.9 µM | UACC-62 > 100 µM | A498 > 100 µM | CCRF-CEM > 100 µM | M19-MEL > 100 µM | EKVX 80.4 µM

CSC1=NC=CCN1C
inactive: SK-MEL-5 > 100 µM | OVCAR-5 > 100 µM | OVCAR-8 > 100 µM | HCC 2998 > 100 µM | OVCAR-4 > 100 µM | IGROV-1 > 100 µM | A549 > 100 µM | NCI-H522 > 100 µM | UACC-62 > 100 µM | A498 > 100 µM | CCRF-CEM > 100 µM | M19-MEL > 100 µM | EKVX > 100 µM

Nc1ccc2c(c1)CC1c3ccccc3C(C2)c2ccccc21
inactive: SK-MEL-5 > 100 µM | SF-539 > 100 µM | OVCAR-5 > 100 µM | OVCAR-8 > 100 µM | HOP-92 > 100 µM | HCC 2998 > 100 µM | OVCAR-4 > 100 µM | IGROV-1 > 100 µM | A549 > 100 µM | NCI-H522 > 100 µM | UACC-62 > 100 µM | A498 > 100 µM | CCRF-CEM 47.3 µM | M19-MEL > 100 µM

COC(=O)C1=CC2CCCC1(O)C(C(C)=O)C2 (stereo not given)
inactive: SK-MEL-5 > 100 µM | SF-539 11.6 µM | OVCAR-5 > 100 µM | Hs-578T > 100 µM | OVCAR-8 44.4 µM | HOP-92 41.4 µM | MDA-N 97.9 µM | HCC 2998 > 100 µM | OVCAR-4 > 62.7 µM | IGROV-1 15.4 µM | A549 51.9 µM | NCI-H522 15.5 µM | UACC-62 > 94.4 µM | NCI/ADR-RES > 63.2 µM | PC-3 61.2 µM | A498 > 100 µM | CCRF-CEM 21.1 µM | EKVX 52.7 µM | T47D 27.4 µM

COc1cc(OC)c2nc3occc3c(OC)c2c1
inactive: SK-MEL-5 45.7 µM | SF-539 > 100 µM | OVCAR-5 > 100 µM | Hs-578T > 100 µM | OVCAR-8 99.5 µM | HOP-92 > 100 µM | MDA-N > 100 µM | HCC 2998 41.6 µM | OVCAR-4 37.1 µM | IGROV-1 > 100 µM | A549 > 100 µM | NCI-H522 > 100 µM | UACC-62 > 100 µM | NCI/ADR-RES > 100 µM | PC-3 > 100 µM | A498 > 100 µM | CCRF-CEM > 100 µM | EKVX 64.7 µM | T47D 61.2 µM
